Source: patent publication US7259142B2, “Redox-stable, non-phosphorylated cyclic peptide inhibitors of SH2 domain binding to target protein, conjugates thereof, compositions and methods of synthesis and use” (The United States of America, represented by the Secretary, …, priority 1999, dated 2007)
Like-named read-outs stand apart in the source and are kept apart here. Where a SMILES comes first, the peptide text is derived from it. Bridges are numbered along the chain shown (N, C = ends). Where no end group is shown, it is not given here. [ ]: non-standard residue; d: D form. pY = N[C@@H](Cc1ccc(OP(=O)(O)O)cc1)C(=O)O; Gla = N[C@@H](CC(C(=O)O)C(=O)O)C(=O)O

Experiments:
[1] = target: T1, p185^erbB-2 receptor association with the Grb2 adapter protein (MDA-MB-453 cell lysates) (Homo sapiens, UniProt P62993); test: Inhibition of p185erbB-2 interaction with Grb2 in cell homogenates (anti-Grb2 immunoprecipitation, anti-pTyr Western blot); format: biochemical
T1 construct: endogenous in cells; host or cells: MDA-MB-453 breast cancer cells
Procedure: Cell lysates were prepared from the serum-treated erbB-2-overexpressing breast cancer cell line MDA-MB-453 using 1% Triton X-100 in PBS containing 0.2 mM NaVO4. Lysates were incubated with the present inventive cyclic peptide inhibitors specified in Example 1 and Example 12, at concentrations of 0.1, 0.4, 2, 10 and 50 μM. No inhibitor was used as a control. Cell lysates were prepared using 1% Triton X-100 in PBS containing 0.2 mM NaVO4. Grb2 and associated Grb2-binding proteins were immunoprecipitated from each lysate (500 μg) with anti-Grb2 antibodies and collected using protein A Sepharose using methods previously described. Immunoprecipitated proteins were separated by SDS-PAGE on 8-16% gradient gels (Novex). pTyr-containing proteins were detected by Western blotting using anti-phosphotyrosine antibodies (Upstate Biotechnology Inc.). Previous experiments have shown that a major tyrosine phosphorylated protein in MDA-MB-453 cells is p185^erbB-2, which is overexpressed as a consequence of gene amplification. […] A dose-dependent inhibition of the p185^erbB-2 receptor association with the Grb2 adapter protein was observed.

[2] = target: T2, p185^erbB-2/Grb2 association in MDA-MB-453 cells (Homo sapiens, UniProt P62993); test: Inhibition of intracellular p185erbB-2/Grb2 association in whole MDA-MB-453 cells; format: cell-based; settings: for concentration of effective inhibition of p185erbB-2/Grb2 association in cells: whole MDA-MB-453 cells treated 3 hrs in serum-free IMEM, inhibitor 0.1-50 μM
T2 construct: endogenous in cells; host or cells: MDA-MB-453 breast cancer cells
Procedure: The compound of Example 1, and the conjugate of Example 12, were tested in MDA-MB-453 cells (breast cancer cells that overexpress p185^erbB-2 receptor) at inhibitor concentrations of 0.1, 0.4, 2, 10 and 50 μM. In the control experiment, no inhibitor was used. The cells were treated for 3 hrs in serum-free IMEM medium. The cells were washed twice with ice-cold PBS to remove the residual inhibitory compound that was not internalized.
Cell lysates were prepared using 1% Triton X-100 in PBS containing 0.2 mM NaVO4. Grb2 and associated Grb2-binding proteins were immunoprecipitated from each lysate (500 μg) with anti-Grb2 antibodies and collected using protein A Sepharose using methods previously described. Immunoprecipitated proteins were separated by SDS-PAGE on 8-16% gradient gels (Novex). pTyr-containing proteins were detected by Western blotting using anti-phosphotyrosine antibodies (Upstate Biotechnology Inc.). Previous experiments have shown that a major tyrosine phosphorylated protein in MDA-MB-453 cells is p185^erbB-2, which is overexpressed as a consequence of gene amplification.
In these whole cell assays the agents were applied to the cell culture media of MDA-MB-453 cells. These conditions required that compounds transit through the cell membrane.

SH2 domain of Grb2 = SH2 domain of Grb2 (Homo sapiens, UniProt P62993); settings: background, previously reported values; read-out: IC50 (receptor affinity); cited from earlier work
[3] = target: recombinant GST-Grb2 SH2 protein (Homo sapiens, UniProt P62993); test: Biacore Surface Plasmon Resonance competitive binding assay against immobilized SHC(pTyr-317)-9-mer phosphopeptide; settings: Biacore SPR, GST-Grb2-SH2 150-250 nM, PBS pH 7.4; mean of at least two independent experiments; read-out: IC50 (concentration at which half-maximal competition was observed)
Procedure: The competitive binding affinity of the present inventive compounds was assessed using Biacore Surface Plasmon Resonance (SPR) methods utilizing a Biacore 2000 instrument. The concentrations at which half-maximal competition was observed (IC50) were determined by mixing the inhibitor with recombinant GST-Grb2 SH2 protein and measuring the amount of competitive binding at equilibrium to an immobilized (via biotin conjugation to streptavidin coated surface of the Biacore sensor chip SA; 2 nM concentration) SHC(pTyr-317)-9-mer phosphopeptide in a manner similar to that reported previously (Oligino et al. (1997), supra). Specifically, competitive binding assays were carried out at 5 μl/min flow rate, with GST-Grb2-SH2 (150-250 nM) and a cyclic peptide inhibitor (10 nM-2 mM) in phosphate-buffered saline (PBS), pH 7.4, containing 0.01% P-20 surfactant (Biacore, Inc., Piscataway, N.J.) for a total of 10 min. The change in response units (RU) at equilibrium was measured from the absorption profiles and the percent of control (no added peptide) was calculated. […] The results represent the mean value of at least two independent experiments.

T2 sequence (P62993 whole entry): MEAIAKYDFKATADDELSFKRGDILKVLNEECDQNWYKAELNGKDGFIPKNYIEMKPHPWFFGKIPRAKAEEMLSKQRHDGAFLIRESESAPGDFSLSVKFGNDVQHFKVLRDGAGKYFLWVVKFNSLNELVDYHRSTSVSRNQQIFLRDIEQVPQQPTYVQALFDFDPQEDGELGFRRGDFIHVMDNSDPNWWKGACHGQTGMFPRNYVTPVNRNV
T1 sequence (P62993 whole entry): as above
Sequence of recombinant GST-Grb2 SH2 protein (P62993 60-152 limits assumed): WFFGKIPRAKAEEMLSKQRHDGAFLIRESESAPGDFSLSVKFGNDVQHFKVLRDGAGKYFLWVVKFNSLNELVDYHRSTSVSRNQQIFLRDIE
Sequence of SH2 domain of Grb2 (P62993 60-152 limits assumed): as above

| Compound | IC50 [1] | reduction in the associated p185erbB-2 bound to Grb2 in cells ([2]; whole MDA-MB-453 cells pre-treated with increasing amounts) | concentration of effective inhibition of p185erbB-2/Grb2 association in cells [2] | IC50 (SH2 domain of Grb2) | IC50 [3] | IC50 ([1]; MDA-MB-453 cell lysates, inhibitor 0.1-50 μM, read-out: half-maximal inhibition of p185erbB-2/Grb2 protein association) |
| --- | --- | --- | --- | --- | --- | --- |
| CSCC[C@@H]1NC(=O)CNC(=O)[C@H](C(C)C)NC(=O)[C@H](CC(N)=O)NC(=O)[C@H](CCC(=O)O)NC(=O)[C@H](Cc2ccc(O)cc2)NC(=O)[C@H](CC(C)C)NC(=O)[C@H](CC(C(=O)O)C(=O)O)NC(=O)CSC[C@@H](C(=O)N[C@@H](C)C(=O)N[C@@H](C)C(=O)N[C@H](C(=O)N[C@@H](C)C(=O)N[C@@H](CC(C)C)C(=O)N[C@@H](CC(C)C)C(=O)N2CCC[C@H]2C(=O)N[C@@H](C)C(=O)N[C@H](C(=O)N[C@@H](CC(C)C)C(=O)N[C@@H](CC(C)C)C(=O)N[C@@H](C)C(=O)N[C@@H](CC(C)C)C(=O)N[C@@H](CC(C)C)C(=O)N[C@@H](C)C(=O)N2CCC[C@H]2C(N)=O)C(C)C)C(C)C)NC(=O)[C@H](Cc2ccc(O)cc2)NC1=O [Example 12, cyclo(CH2CO-Gla^1-Leu^2-Tyr^3-Glu^4-Asn^5-Val^6-Gly^7-Met^8-Tyr^9-Cys)-NH-Ala-Ala-Val-Ala-Leu-Leu-Pro-Ala-Val-Leu-Leu-Ala-Leu-Leu-Ala-Pro] ({CH2CO}-[Gla]LYENVGMYCAAVALLPAVLLALLAP-NH2; thioether N-10) | 2000 nM | clear dose-dependent reduction | 2 µM |  |  |  |
| SHC(pY^317)-9-mer: segment of the naturally phosphorylated ligand (DDPS[pY]VNVQ) |  |  |  | 1000 nM |  |  |
| CSCC[C@@H]1NC(=O)CNC(=O)[C@H](C(C)C)NC(=O)[C@H](CC(N)=O)NC(=O)[C@H](CCC(=O)O)NC(=O)[C@H](Cc2ccc(O)cc2)NC(=O)[C@H](CC(C)C)NC(=O)[C@H](CC(C(=O)O)C(=O)O)NC(=O)CSC[C@@H](C(N)=O)NC(=O)[C@H](Cc2ccc(O)cc2)NC1=O [Example 1, cyclo(CH2CO-Gla^1-Leu^2-Tyr^3-Glu^4-Asn^5-Val^6-Gly^7-Met^8-Tyr^9-Cys)-amide] ({CH2CO}-[Gla]LYENVGMYC-NH2; thioether N-10) |  |  | 50 µM |  | 640 ± 100 nM | 2000 nM |
